{"source": "patent US10471054B2", "about": "“CDK1 inhibitors of acetyl chrysin mannich base derivatives, synthesis and use thereof” (priority 2016, dated 2019)", "key": {"[1]": {"assay": "Solubility in Octanol, water and pH media", "assay_type": "physicochemical", "description": "(§1) The solubility and log P of acetyl ChrysinMannich base derivatives see TABLE 1.\n(§2) CH-j is pKa 5.3, log P 1.63 in Octanol/Water at 37° C. […] (BA-j 77m/ml). CH-j belongs to BCS II (low solubility, high permeability) and solubility presents the pH dependence. […] CH-j is a pH dependent fast release. […] It is speculated that CH-j has more appropriate log P and solubility with more likely entering tissue cells than others solubility acetyl Chrysin Mannich base derivatives.\n(§3) (about 20 times BA-f 277 μg/ml) and 564 μg/ml in water at 37° C. (about 1000 times BA-f 0.53m/ml). CH-f is BCS I (high solubility and permeability) and solubility presents the pH dependence. It is speculated that CH-f has more appropriate log P and solubility with entering systemic (blood system and tissue cells) than others solubility acetyl Chrysin Mannich base derivatives."}, "[2]": {"assay": "log P in Octanol/Water", "assay_type": "physicochemical", "conditions": "Octanol/Water at 37° C.", "description": "as §1, §2, §3"}, "[3]": {"assay": "Dissolution in pH media", "assay_type": "physicochemical", "conditions": "37° C.", "description": "as §2"}, "[4]": {"tested_on": "PBMCs, activated lymphocytes, human normal Liver cells", "assay": "H2O2 level in blood and normal cells, PF1-H2O2 fluorescent probe", "assay_type": "cell-based", "conditions": "CH-j: PBMCs and activated lymphocytes; BA-j: activated lymphocyte", "description": "The cells are cancer cells (MCF-7, GBC-823, Hep G2) and normal cells (Liver, COS-7, PBMCs). According to the literature [Scientific Reports, 2015, 5: 13626; Anti-cancer Agents in Medicinal Chemistry, 2016, 16: 914-924.], in vitro cultured cells was given to CH-j 25 μM for 3.5 h, added PF1-H2O2 selective fluorescence probe 10 μM for 0.5 h and detected the concentration of H2O2 in cells, and performed fluorescence imaging by results shown in FIG. 1.\nFIG. 1-3, FIG. 1-4, The fluorescence imaging by PF1-H2O2 10 μM is that CH-j […] for 4 h affected the level of H2O2 in MCF-7, GBC-823, Hep G2 and Liver.\nFIG. 1-3: CH-j/BA-j affects the levels of H2O2 in blood cells, X-coordinate is the concentration of CH-j/BA-j concentration (μM), and Y-coordinate the intracellular levels of H2O2 (μM) for 4 h with PF1-H2O2 10 μM by Fluorescence Microplater Reader (488 nm/525 nm)."}, "[5]": {"tested_on": "MCF-7 and COS-7", "assay": ".OH level, CCy-OH fluorescent probe imaging", "assay_type": "cell-based", "conditions": "12.5 μM for 5 h"}, "[6]": {"tested_on": "H-460", "assay": "Anti-cancer cells proliferation activity (MTT, 48 h)", "assay_type": "cell-based", "conditions": "Homo sapiens, NCI-H460, H-460, MTT", "description": "(§4) Anti-cancer cells proliferationactivity of in vitro CH-j and CH-f were shown in TABLE 2 for the results of the screening of 5 cancers cells."}, "[7]": {"tested_on": "Hep G2", "assay": "Anti-cancer cells proliferation activity (MTT, 48 h)", "assay_type": "cell-based", "conditions": "Homo sapiens, HepG2", "description": "as §4"}, "[8]": {"tested_on": "MCF-7", "assay": "Anti-cancer cells proliferation activity (MTT, 48 h)", "assay_type": "cell-based", "conditions": "Homo sapiens, MCF7, MCF-7, MTT", "description": "as §4"}, "[9]": {"tested_on": "PC-3", "assay": "Anti-cancer cells proliferation activity (MTT, 48 h)", "assay_type": "cell-based", "conditions": "Homo sapiens, PC-3, MTT", "description": "as §4"}, "[10]": {"tested_on": "5 cancers cells (MCF-7, H-460, BGC-823, PC-3, Hep G2)", "assay": "Anti-cancer cells proliferation activity, average of 5 cancer cells", "assay_type": "cell-based", "conditions": "for IC50: average of 5 cancer cells", "description": "as §4"}, "[11]": {"tested_on": "BGC-823", "assay": "PI staining flow cytometry, cell cycle", "assay_type": "cell-based", "conditions": "24 h", "description": "PI specificity is combined with DNA, and the fluorescence intensity is in a good linear relationship with the combination of PI. After cell fixation, PI staining was used for quantitative analysis of DNA content in cells by flow cytometry. Since the amount of DNA in different cell cycles varies, it can be determined that the drug actions on the cell cycle. In cell apoptosis, there are many characteristic changes in the cell and molecular level, and the most characteristic of the change of nucleus is the change of nucleus. Due to activate apoptosis cells, DNA degradation, reduce the cell DNA, and therefore can be in the GO/G1 peak appeared before a diploid apoptosis peak (sub-G1), […] pyrolysis peak integer times of DNA, no less than […] pyrolysis peak.\nIn addition, high concentrations of drugs can also reduce the proportion of S stage cells.\nFIG. 3-2 PI staining results for BGC-823."}, "[12]": {"tested_on": "Bcl-2", "assay": "Bcl-2 expression in MCF-7", "assay_type": "cell-based", "conditions": "10 μM for 24 h"}, "[13]": {"assay": "Main metabolic pathways, glucose aldehyde acid metabolism", "conditions": "in vivo", "description": "(I) Neutral degradation in normal cells: CH-j is hydrolyzing into Hydroxy-phenyl-acetic acid (M152), 1-(2, 4, 6-Trihydroxy-phenyl)-ethanone (M168) and N-hydroxymethyl-piperidin-4-one (M129) as the main metabolic pathways.\nFlavopiridol, p276-00 and Vorciclib of Chrysin-organic amine derivatives, duo to mainly C7-glucose aldehyde acidification metabolites by oral, only a small amount is into the tissue cells. In the tissue cells, it is not easy to be metabolized in part because of the organic amine substituents, thus producing strong cytotoxicity. […] CH-j can enhance I phase metabolism and inhibit II phase metabolism. […] [Scientific Reports, 2015, 5: 13626; Fitoterapia, 2015, 107:36-34.]"}, "[14]": {"assay": "Tissue distribution in rat, 2 h", "assay_type": "in vivo", "description": "The distribution results of CH-j tissue distribution were shown in FIG. 6, when CH-j 100 mg/kg rat by venous intravenous (i.v.) or oral (p.o.) 2 h. […] CH-j by oral in the stomach concentration of the large, about 2 time higher than other tissues. […] Compared with the intravenous administration, the oral administration was completely absorbed and the bioavailability was close to 100%.\nFIG. 6: 2 h distribution of the drug (100 mg/kg) by CH-j rats: Y-coordinate is the concentration of CH-j (μg/g), by intravenous (i.v.), by oral (p.o.)."}}, "note": "Where two headings read alike, the source gives them in different places.", "data": [{"smiles": "CC(=O)c1c(O)c(CN2CCC(O)CC2)c2oc(-c3ccccc3)cc(=O)c2c1O", "note": "[CH-j, 6-Acetyl-5,7-dihydroxy-8-(4-hydroxy-piperidin-1-ylmethyl)-2-phenyl-chromen-4-one]", "values": [{"measurement": "BCS class", "setting": "[1]", "value": "BCS II"}, {"measurement": "Solubility in Octanol relative to BA analogue", "setting": "[1]; CH-j vs BA-j, CH-f vs BA-f, 37° C.", "value": "about 6 times"}, {"measurement": "solubility", "setting": "[1]; organic solvent or mixture, Octanol, 37° C., read-out: Solubility in Octanol", "value": 2420, "unit": "µg/mL"}, {"measurement": "solubility", "setting": "[1]; pH 1.2, simulated gastric fluid, 0.1M HCl (pH1.2), 37° C., read-out: Solubility", "value": 574, "unit": "µg/mL"}, {"measurement": "solubility", "setting": "[1]; pH 4.5, aqueous buffer, 0.05M NaAC-HAC buffered solution (pH4.5), 37° C., read-out: Solubility", "value": 528, "unit": "µg/mL"}, {"measurement": "solubility", "setting": "[1]; pH 6.8, aqueous buffer, PBS (pH6.8), 37° C., read-out: Solubility", "value": 78, "unit": "µg/mL"}, {"measurement": "solubility", "setting": "[1]; water, 37° C., read-out: Solubility in H2O", "value": 56, "unit": "µg/mL"}, {"measurement": "log P", "setting": "[2]", "value": 1.64}, {"measurement": "logP", "setting": "[2]; octanol/water", "value": 1.63}, {"measurement": "Dissolution", "setting": "[3]; 0.05M NaAC-HAC buffered solution (pH4.5)", "value": 90, "unit": "%"}, {"measurement": "Dissolution", "setting": "[3]; 0.1M HCl (pH1.2)", "value": 62, "unit": "%"}, {"measurement": "Dissolution", "setting": "[3]; PBS (pH6.8)", "value": "< 1.0", "unit": "%"}, {"measurement": "Dissolution", "setting": "[3]; water", "value": "< 0.1", "unit": "%"}, {"measurement": "Dose dependence of H2O2 level", "setting": "[4]", "value": "no significant dose-dependent manner"}, {"measurement": "Level of .OH, red fluorescence", "setting": "[5]", "value": "present red fluorescence in MCF-7 and no in COS-7"}, {"measurement": "IC50", "setting": "[6]", "value": "6.5 ± 1.13", "unit": "µM"}, {"measurement": "IC50", "setting": "[7]", "value": "6 ± 1.5", "unit": "µM"}, {"measurement": "IC50", "setting": "[8]", "value": "5.7 ± 1.24", "unit": "µM"}, {"measurement": "IC50", "setting": "[9]", "value": "6.2 ± 1.16", "unit": "µM"}, {"measurement": "Anti-proliferative activity, times stronger than BA-j", "setting": "[10]", "value": 2, "unit": "times"}, {"measurement": "Anti-proliferative activity, times stronger than Chrysin", "setting": "[10]", "value": 5, "unit": "times"}, {"measurement": "IC50", "setting": "[10]", "value": 2.6, "unit": "µg/mL"}, {"measurement": "IC50", "setting": "[10]; MTT, 48 h", "value": 6.3, "unit": "µM"}, {"measurement": "Cell cycle effect by PI staining", "setting": "[11]", "value": "block the BGC-823 in G1, G2 phase"}, {"measurement": "Bcl-2 expression", "setting": "[12]", "value": "Bcl-2 expression can be suppressed"}, {"measurement": "Dependence of metabolic pathway on CYP3A4", "setting": "[13]", "value": "independent of CYP3A4"}, {"measurement": "Concentration in the stomach relative to other tissues", "setting": "[14]; 100 mg/kg rat, oral, 2 h", "value": "about 2 time"}, {"measurement": "bioavailability", "setting": "[14]; in vivo, rat 100 mg/kg, oral compared with intravenous", "value": "~100", "unit": "%"}, {"measurement": "Detection of prototype drug in blood, urine, tissues", "setting": "[14]; rat", "value": "In the blood, urine, bile and tissues, the prototype drugs and metabolites can be detected"}, {"measurement": "Blood-brain barrier passage", "setting": "[14]; rat 100 mg/kg, 2 h", "value": "able to pass the blood-brain barrier"}]}]}
